A short description of data set [1]: Peptide stability in mouse plasma, LC/MS. It counts as in vitro ADME, Swiss-Webster mice. The settings on record: for Concentration: 800 ng/mL, 37° C.; for Percent of Nominal: nominal 800 ng/mL. Here is the method:
(§1) human plasma (Lot #BCE012312PM1, K3 EDTA) was obtained from BioChemed Services (Winchester, VA) and was stored at −80° C. Young adult male Swiss-Webster mice were obtained from Taconic Farms, and were anesthetized with carbon dioxide, and exsanguinated by cardiac puncture. Blood was collected in to tubes containing K2 EDTA and cooled in ice. Plasma was prepared by centrifugation for 10 min at 3000 g and 4° C. Mouse plasma and blood was used on the day of harvest.
(§2) Quenched matrix (human and mouse plasma) samples were prepared from one volume of plasma precipitated with three volumes of 9:1 acetonitrile:water at 4° C. and centrifuged for 10 min at 3000 g and 4° C., and the supernatant was used to prepare standard curve samples. A stock solution of 20 mg/mL Ac-DWLP-amide (SEQ ID NO: 133, Ac=acetyl group, amide=amide group) and 20 mg/mL Ac-dWlP-amide (SEQ ID NO: 132, DWLP with D-amino acids D and L indicated by lower case) was prepared in distilled water. Each peptide stock (20 mg/mL) was used to prepare a dilution in phosphate buffered saline (PBS) at 1 mg/mL and those samples were further diluted in PBS to prepare 100 and 50 μg/mL solutions. The 100 and 50 μg/mL solutions were added to the quenched matrix supernatant at concentrations equivalent to 0, 300, 1000, 3000, and 10000 ng/mL pre-quench plasma concentrations to prepare standard curve samples. Triplicate aliquots (100 μL) of each standard curve sample were diluted in 100 μL water prior to analysis by LC/MS.
(§3) The two peptides were formulated in PBS (40 μg/mL), and incubated with human and mouse plasma at 37° C. in polypropylene tubes at a concentration of 800 ng/mL in duplicate. Incubation aliquots (100 μL) were removed at 0, 15, 30, and 60 min and immediately quenched by the addition of 300 μL 9:1 acetonitrile:water, vortexed and centrifuged for 10 min at 3000 g and 4° C. Then 100 μL of each supernatant was diluted with 100 μL PBS prior to analysis by LC/MS.
(§4) Processed standard curve and incubation samples were analyzed using the method described in Table 1. The concentration of peptide in plasma was determined by extrapolation from the standard curve.

Data set [2] can be described thus: Peptide in plasma prepared from spiked mouse blood (partition into red blood cells), LC/MS. It counts as in vitro ADME, Swiss-Webster mice. The settings on record: for Concentration in Mouse Plasma Prepared From Mouse Blood Incubated with Each Peptide: 800 ng/mL in chilled mouse blood, plasma prepared after five minutes; for partition between plasma fraction and red blood cells: mouse blood, 800 ng/mL. As for the experimental part:
as §1
The two peptides were formulated as for plasma and introduced into mouse blood chilled in an ice bath at a concentration of 800 ng/mL in duplicate. Five minutes after adding to blood, plasma was prepared and duplicate aliquots were extracted (as above) and analyzed by LC/MS.
as §4

Data set [3] is described as follows: Peptide stability in human plasma, LC/MS. It counts as in vitro ADME. Conditions: for stability in human plasma / Concentration: 800 ng/mL, 37° C.; for stability in human plasma: 1 h; for Concentration / Percent of Nominal: human plasma; for Percent of Nominal: nominal 800 ng/mL. As for the experimental part:
as §1, §2, §3, §4

For data set [4] the following is noted: mouse, in vivo; cited from earlier work.
The subject of data set [5] is primary ovarian cancer cells. Briefly: Intraperitoneal metastatic ovarian cancer model, bioluminescence. It counts as in vivo, CB-17 SCID mice. Conditions: 2 mg/kg QOD from day 17. As for the experimental part: For metastatic ovarian cancer cell injections, 5×10^6 viable primary ovarian cancer cells were injected into CB-17 SCID mice intraperitoneally in a volume of 0.1 ml. Tumor growth was monitored by live animal bioluminescence imaging (Xenogen) once per week. For in vivo determination of the metastatic burden, mice were anaesthetized and injected intraperitoneally with 75 mg/kg of D-luciferin (100 uL of 30 mg/mL in PBS). Metastatic growth was monitored over time using bioluminescence imaging performed with mice in a supine position 5 min after D-luciferin injection with a Xenogen IVIS system coupled to Living Image acquisition and analysis software (Xenogen). For BLI plots, photon flux was calculated for each mouse by using the same circular region of interest encompassing the abdomen of the mouse.
To determine whether DWLPK (SEQ ID NO: 4) could inhibit or regress existing ovarian metastases 5×10^6 primary ovarian cancer cells were injected intraperitoneally into SCID mice. After 17 days treatment was initiated with DWLPK (SEQ ID NO: 4) at a dose of 40 mg/kg QD, cisplatin at a dose of 2 mg/kg QOD, a combination of DWLPK (SEQ ID NO: 4) and cisplatin at the same doses, or PBS (control). It was observed that DWLPK (SEQ ID NO: 4) treatment completely regressed the metastases in 11/12 after 30 days and the regressed the metastases in the remaining mice by 99% (FIG. 20).

Data set [6] deals with Tsp-1 expression. The settings on record: previously shown; cited from earlier work.
In data set [7] the test system is Tsp-1 and p53 expression in lungs. Briefly: Tumor-free mice given PC3M-LN4 conditioned media plus peptide; Tsp-1/p53 in tissue by western blot. It counts as in vivo, C57Bl6 mice. The settings on record: PC3M-LN4 CM plus 30 mg/kg pegylated peptide daily, 9 days; compared with PC3 conditioned media. Here is the method: For tumor-free analysis C57Bl6 mice were treated with 200 uL of PC3M-LN4 media alone or in combination with peptides described above at dose of 30 mg/kg/day for 5 days. After treatment the animals were sacrificed and the lungs were harvested, lysed and analyzed for Tsp-1 and p53 protein levels as described previously (Kang et al).
It was sought to determine whether there was a smaller domain within saposin A that contained the p53/Tsp-1 stimulating activity. […] C57Bl6 mice (5-6 wks old) were injected daily with 300 uL of serum free DMEM, conditioned media (CM) from non-metastatic PC3 cells, CM from metastatic PC3M-LN4 cells and PC3M-LN4 CM plus 30 mg/kg of the pegylated 6 amino acid polypeptide (PEG2000-CDWLPK (SEQ ID NO: 46)) or 30 mg/kg of the pegylated 18 amino acid polypeptide (PEG2000-[…] (SEQ ID NO: 47)). After 9 days the mice were euthanized and the lungs and livers harvested and either fixed in formalin or lysed for Western blot analysis.
Finally, the effect of substituting D-amino acids at different residues of the 4-amino acid peptide was analyzed. By Western blot analysis it was observed that substituting the first and third or second and fourth residues, in combination, had no effect on the Tsp-1 stimulating activity in vitro. These peptides were then tested in the tumor-free animal model described above. The normal 4-amino acid peptide and the D-amino acid substituted peptides were injected in combination with conditioned media from PC3M-LN4 cells in adult C57Bl6 mice for 4 days at a dose of 10 or 30 mg/kg/day via i.p. injection. Mice were sacrificed 24 hours after the treatment on day 4. The lungs of these mice were harvested and analyzed the Tsp-1 expression by Western blot analysis. […]
Methods: 18 C57Bl6 mice were injected with Ac-dWlP-amide (SEQ ID NO: 132) at a dose of 30 mg/kg in a volume of 100 μL via intraperitoneal (i.p) injections in serum starved conditioned media from PC3M-LN4 prostate cancer cells. […] The relative intensity of the Tsp-1 (normalized to β-Actin) bands were determined using a Bio-Rad Chemi-Doc XRS system.

“And” between values parts separate entries of the source, which are not always exact repeats. Equal entries are not always repeated. Non-standard residues stand in square brackets, D forms with d. Residues, ends and D or L forms follow the SMILES beside them. No end group written: not given here. PEG2000 = polyethylene glycol 2000 attached at the N-terminus

Regarding `CC(=O)N[C@@H](CC(=O)O)C(=O)N[C@@H](Cc1c[nH]c2ccccc12)C(=O)N[C@@H](CC(C)C)C(=O)N1CCC[C@H]1C(N)=O` [Ac-DWLP-amide] (Ac-DWLP-NH2), the Concentration is 869 ng/mL and 955 ng/mL in data set [1] (0 min); 669 ng/mL and 605 ng/mL in data set [1] (15 min); 428 ng/mL and 400 ng/mL in data set [1] (30 min); 398 ng/mL and 463 ng/mL in data set [1] (60 min); 649 ng/mL and 784 ng/mL in data set [3] (0 min); 760 ng/mL and 817 ng/mL in data set [3] (15 min). In addition, the Concentration was 538 ng/mL and 607 ng/mL in data set [3] (30 min); 634 ng/mL and 616 ng/mL in data set [3] (60 min). In addition, the “Percent of Nominal” value in data set [1] (0 min) was 108.6% and 119.4%; in data set [1] (15 min), 83.6% and 75.6%; in data set [1] (30 min), 53.5% and 50.0%; in data set [1] (60 min) it was 49.8% and 57.9%; in data set [3] (0 min) it was 81.1% and 98.0%; in data set [3] (15 min), 95.0% and 102.1%. In addition, the “Percent of Nominal” value was 67.3% and 75.9% in data set [3] (30 min); 79.3% and 77.0% in data set [3] (60 min). The “Concentration in Mouse Plasma Prepared From Mouse Blood Incubated with Each Peptide” value in data set [2] is 1580 ng/mL and 1510 ng/mL and 1530 ng/mL and 1610 ng/mL. For the same compound, the “partition between plasma fraction and red blood cells” value in data set [2] is “remain primarily in the plasma fraction and do not partition into red blood cells”. The “stability in human plasma” value in data set [3] was “good stability”.
Take `CC(=O)N[C@H](CC(=O)O)C(=O)N[C@@H](Cc1c[nH]c2ccccc12)C(=O)N[C@H](CC(C)C)C(=O)N1CCC[C@H]1C(N)=O` [Ac-dWlP-amide] (Ac-[dD]W[dL]P-NH2): the Concentration in data set [1] (0 min) is 858 ng/mL and 859 ng/mL; in data set [1] (15 min), 520 ng/mL and 462 ng/mL; in data set [1] (30 min), 541 ng/mL and 496 ng/mL; in data set [1] (60 min), 446 ng/mL and 469 ng/mL; in data set [3] (0 min), 1050 ng/mL and 779 ng/mL; in data set [3] (15 min), 941 ng/mL and 875 ng/mL. In addition, the Concentration in data set [3] (30 min) was 863 ng/mL and 818 ng/mL; in data set [3] (60 min), 1100 ng/mL and 901 ng/mL. For the same compound, the “Percent of Nominal” value is 107.3% and 107.4% in data set [1] (0 min); 65.0% and 57.8% in data set [1] (15 min); 67.6% and 62.0% in data set [1] (30 min); 55.8% and 58.6% in data set [1] (60 min); 131.3% and 97.4% in data set [3] (0 min); 117.6% and 109.4% in data set [3] (15 min). For the same compound, the “Percent of Nominal” value in data set [3] (30 min) was 107.9% and 102.3%; in data set [3] (60 min), 137.5% and 112.6%. Also, the “Concentration in Mouse Plasma Prepared From Mouse Blood Incubated with Each Peptide” value in data set [2] was 1420 ng/mL and 1380 ng/mL and 1060 ng/mL and 1010 ng/mL. Also, the “partition between plasma fraction and red blood cells” value in data set [2] is “remain primarily in the plasma fraction and do not partition into red blood cells”. Moreover, the “stability in human plasma” value in data set [3] is reported as “stable”.
As to `CO[C@@H]1[C@H](OC(=O)NC(=O)CCl)CC[C@]2(CO2)[C@H]1[C@@]1(C)O[C@@H]1CC=C(C)C` [TNP-470], in data set [4], the “development of obesity in mice” value is “prevent diet-induced and genetic obesity”; the “vascularity in the adipose tissue” value is “reduced vascularity in the adipose tissue”.
For the compound `N.N.[Cl][Pt][Cl]` [cisplatin, reference compound], the “course of tumors under cisplatin treatment” value in data set [5] is “developed resistance to cisplatin treatment after 20 days and began growing again”.
As for LEKTCDWLPKPNMSASCKEI, in data set [6], the “stimulating Tsp-1 expression in vitro and in vivo” value is “capable of stimulating Tsp-1 expression in vitro and in vivo”.
PEG2000-CDWLPK: in data set [7], the “stimulating the expression of Tsp-1 in the lung and liver” value is given as “as, or more, effective than PC3 conditioned media”.
Turning to “PEG2000-EKTCDWLPKPNMSASCKE (cysteine pairing not given here)”, in data set [7], the “stimulating the expression of Tsp-1 in the lung and liver” value is reported as “as, or more, effective than PC3 conditioned media”.

Values taken from patent publication US12285459B2, “Saposin-A derived peptides and uses thereof” (CHILDREN'S MEDICAL CENTER CORPORATION, priority 2011, dated 2025).
